Assay results: patent US11123313B2, “Methods and compositions for treating sleep apnea” (The Brigham and Women's Hospital, Inc., priority 2017, dated 2021)

Test system: obstructive sleep apnea (OSA) human patients
Conditions: seven OSA patients, 2 additional nights with single drugs
Experimental: Subsequently, a placebo-controlled, double-blinded, randomized, crossover trial in 20 obstructive sleep apnea (OSA) human patients was performed. Participants received treatment (Atomoxetine 80 mg+Oxybutynin 5 mg) or placebo in randomized order 30 minutes before sleep. […] Data are expressed as median [25th-75th percentile]
Seven OSA patients were studied also on 2 additional nights in which the 2 drugs were administered alone (not in combination).
Group data was obtained using genioglossus electromyography in 16 out of 20 patients who took part to the original trial to determine the effect of Atomoxetine plus Oxybutynin (ato-oxy) on genioglossus muscle responsiveness. Muscle responsiveness reflects the change in genioglossus muscle electromyographic activity (percent of baseline) per change in esophageal pressure (Pes) swings during spontaneous breathing in non-REM sleep (see FIG. 10B for physiological context).

Structure (SMILES) | AHI compared to placebo, drugs alone vs in combination
CNCC[C@@H](Oc1ccccc1C)c1ccccc1 [Atomoxetine] | did not improve the AHI
CCN(CC)CC#CCOC(=O)C(O)(c1ccccc1)C1CCCCC1 (centres unmarked) [Oxybutynin] | did not improve the AHI
